In patent US6559125B1, “Polyamide-alkylator conjugates and related products and method” (priority 2000, dated 2003):

Key:
[1] = tested on: 3′ and 5′ 32P labeled 241 base pair restriction fragments containing the HIV-1 promoter; assay: Thermal cleavage assay (heat-induced single-strand DNA cleavage); type: biochemical
Procedure: Storage phosphor autodiograms of 8% denaturing polyacrylamide gels used to separate the fragments generated by heat induced DNA cleavage at alkylation sites. All reactions contained 10,000 cpm restriction fragment, 10 mM Tris.HCl (pH 7.0), 10 mM KCl, 10 mM MgCl and 5 mM CaCl and were performed at 37° C. Following 24 hour of equilibration, the DNA pellet was resuspended in sodium citrate buffer (pH=7.2) and heated to 90° C. for 15 min to thermally cleave at sites of adenine- or guanine-N3 lesions. (a) 5′-^32P-end-labeled restriction fragment (SEQ ID NO:5). (b) 3′-^32P-end-labeled restriction fragment. (a-b) Lane 1, intact DNA; lane 2, A-specific reaction; lane 3, G-specific reaction; lanes 5-13, […], respectively. (b) Lane 14, 10 μM CHL-Dp (5). Center, alkylation sites on the DNA fragment, indicate by arrows. Sites 5′-TCGTCGACGA-3′ (SEQ ID NO:20) (A), 5′-ACGTCGA-3′ (B), and 5′-ACGTCGA-3′ (E) are match sites and 5′-ACATCTT-3′ (C) and 5′-TCGTCAG-3′ (D) are double base pair mismatches (mismatches indicated by gray boxes).
Storage phosphor autodiogram of 8% denaturing polyacrylamide gels used to separate the fragments generated by heat induced DNA cleavage at alkylation sites. All reactions contained 10,000 cpm restriction fragment, 10 mM Tris.HCl (pH 7.0), 10 mM KCl, 10 mM MgCl2 and 5 mM CaCl2 and were performed at 37° C. Following of equilibrations of 10 minutes-24 hours, the DNA pellet was resuspended in sodium citrate buffer (pH=7.2) and heated to 90° C. for 15 min to thermally cleave at sites of adenine- or guanine-N3 lesions. Lane 1, intact DNA; lane 2, A-specific reaction; lane 3, G-specific reaction; lanes 4-11, 500 pM ImPy-β-ImPy-(R)^CHLγ-ImPy-β-ImPy-β-Dp (2), equilibrations for 10 min, 20 min, 30 min, 1 h, 2 h, 4 h, 12 h, 24 h, respectively. Right. models bound to match sites on the DNA fragment (SEQ ID NO:15). The polyamide is colored as in FIG. 7. The solid arrows indicate cleavage bands from cleavage sites of adenine- or guanine-N3 lesions on the restriction fragment.
All reactions were executed in a total volume of 40 μl. A polyamide stock solution or H2O was added to an assay buffer containing radiolabeled restriction fragment (10,000 cpm), affording final solution conditions of 10 mM Tris.HCl, 10 mM KCl, 10 mM MgCl2, 5 mM CaCl2, pH 7.0, and either 1 pM-10 nM nitrogen mustard-polyamide conjugate or no conjugate (for reference lanes). The solutions were equilibrated at 37° C. for the desired time period. The reactions were stopped by the addition of 60 μl of a solution containing 0.6 M NaOAc, 12.5 mM EDTA, 0.15 mM (bp) calf thymus DNA, 2.0 M NaCl, 0.8 mg/ml glycogen, and ethanol precipitated. Reactions were resuspended in 40 μl […] sodium citrate buffer, pH 7.2, and heated for […] The reactions were ethanol precipitated and resuspended in 1×TBE/80% formamide loading buffer, denatured by heating at 85° C. for 10 minutes, and placed on ice. The reaction products were separated by electrophoresis on an 8% polyacrylamide gel (5% cross-link, 7 M urea) in 1×TBE at 2000 V. Gels were dried and exposed to a storage phosphor screen (Molecular Dynamics) [Johnston, R. F., Pickett, S. C. & Barker, D. L. (1990). Autoradiography using storage phosphor technology. Electrophoresis 11, 355-360].

[2] = tested on: 5′-end labeled and 3′-end labeled 277 base pair restriction fragment; assay: Thermally induced strand cleavage by seco-CBI conjugates; type: biochemical; conditions: for concentration range of alkylation by CBI control compounds: FIG. 17, 1 μM and 10 μM, 12 H, 37° C.
Procedure: Storage phosphor autoradiograms of 8% denaturing polyacrylamide gels used to separate the fragments generated by heat induced DNA cleavage at alkylation sites. All lanes contain 10 kcpm of either 5′ or 3′ radiolabeled DNA. Each reaction was equilibrated in TE, pH 7.5 at 37° C. for 12 H. The unbound polyamide was removed by precipitation, and then strand cleavage was induced by heating at 95° C. for 30 min. (a) 5′-^32P-end labeled restriction fragment (SEQ ID NO:18). (b) 3′-^32P-end labeled restriction fragment. (a-b) lanes 1 and 14, intact DNA; lanes 2-11, 15-24, 1 pM, 2 pM, 5 pM, 10 pM, 20 pM, 50 pM, 100 pM, 200 pM, 500 pM, 1 nM respectively of the corresponding polyamide; lanes 12 and 25, A-specific reaction; lanes 13 and 26, G-specific reaction. (a-b) Ball-and-stick models of polyamides bound to match and mismatch sites on the DNA fragment. Match sites 5′-TGGTCA-3′ and 5′-AGGACT-3′ and single base pair mismatch site 5′-AGGAGT-3′ are indicated in bold on the sequence, with arrows indicating cleavage bands. The polyamide is colored as in FIG. 10, with the bold triangle representing (R)-CBI.
Storage phosphor autoradiograms of 8% denaturing polyacrylamide gels used to separate the fragments generated by heat induced DNA cleavage at alkylation sites. All lanes contain 10 kcpm of either 5′ or 3′ radiolabeled DNA. Each reaction was equilibrated in TE, pH 7.5 at 37° C. from 0 to 10 hours. The unbound polyamide was removed by precipitation, and then strand cleavage was induced by heating at 95° C. for 30 min. (a) 5′-^32P-end labeled restriction fragment (SEQ ID NO: 18). (b) 3′-^32P-end labeled restriction fragment. (a-b) lanes 1 and 11, intact DNA; lanes 2-8, 1 nM of corresponding polyamide, equilibrations for 0, 15 minutes, 30 minutes, 1 hour, 2 hours, 5 hours, and 10 hours, respectively; lanes 9 and 19, A-specific reaction; lanes 10 and 20, G-specific reaction. (a-b) Ball-and-stick models of polyamides bound to match and mismatch sites on the DNA fragment. Match sites 5′-TGGTCA-3′ and 5′-AGGACT-3′ and single base pair mismatch site 5′-AGGAGT-3′ are indicated in bold on the sequence, with arrows indicating cleavage bands. The polyamide is colored as in FIG. 10, with the bold triangle representing (R)-CBI.
Storage phosphor autoradiograms of 8% denaturing polyacrylamide gels used to separate the fragments generated by heat induced DNA cleavage at alkylation sites. All lanes contain 10 kcpm of either 5′ or 3′ radiolabeled DNA. Each reaction was equilibrated in TE, pH 7.5 at 37° C. for 12 H. The unbound polyamide or agent was removed by precipitation, and then strand cleavage was induced by heating at 95° C. for 30 min. (a) 5′-^32P-end labeled restriction fragment. (b) 3′-^32P-end labeled restriction fragment. (a-b) Lane 1, intact DNA; lane 2, 1R, 1 nM; lane 3 1S, 1 nM; lanes 4-5, 2R, 1 μM and 10 μM, respectively; lanes 6-7, 2S, 1 μM and 10 μM, respectively; lane 8, A-specific reaction; lane 9, G-specific reaction.
All reactions were carried out in a volume of 50 μl. A polyamide or seco-CBI-dimethyl gaba stock solution or water (for reference lane) was added to an assay buffer of TE (pH7.5) and […] of 3′- or 5′-radiolabeled DNA. The solutions were allowed to equilibrate for 12 hours or the appropriate time (for time course reactions) at 37° C. The reactions were stopped with 60 μl of a solution containing NaOAc (600 mM), EDTA pH 8.0 (12.5 mM), calf thymus DNA (150 μM base pair), glycogen (0.8 mg mL^−1), and NaCl (2 M). Ethanol was added to remove unbound polyamide and precipitate the products. The reactions were resuspended in 20 μl of TE (pH 7.5) and cleavage was initiated by heating at 95° C. for 30 minutes. The cleavage products were precipitated with 150 μl ethanol and then resuspended in 100 mM trisborate-EDTA/80% formamide loading buffer, and denatured and loaded onto polyacrylamide gels as previously reported. The gels were quantitated by the use of storage phosphor technology. […]

Molecule: CN(C)CCCNC(=O)CCCc1ccc(N(CCCl)CCCl)cc1 [compound 4, 4-{4-[bis (2-chloroethyl)amino]phenyl}-N-[3-(dimethylamino)propyl]butanamide]
- cleavage by freely diffusing alkylator ([1]; 10 μM concentration): no cleavage

Molecule: (R)-Seco-CBI-β-alanine-(dimethyl)-β-aminobutyric acid [2R]
- concentration range of alkylation by CBI control compounds [2]: alkylate only at micromolar concentrations

Molecule: (S)-Seco-CBI-β-alanine-(dimethyl)-γ-aminobutyric acid [2S]
- concentration range of alkylation by CBI control compounds [2]: alkylate only at micromolar concentrations

Molecule: ImImPyPy-(R)^(R)-CBIγ-ImPyPyPy-β-Dp [conjugate 1R]
- alkylation efficiency and rate compared with the other enantiomer conjugate [2]: higher alkylation efficiency and faster rates of alkylation than 1S
- alkylation on the 5′-labeled strand [2]: no alkylation
- site of alkylation [2]: alkylation at the site which includes a match site for the polyamide

Molecule: ImImPyPy-(R)^(S)-CBIγ-ImPyPyPy-β-Dp [conjugate 1S]
- site of alkylation [2]: alkylates adjacent to a match site

Molecule: ImPy-β-ImPy-(R)^CHLγ-ImPy-β-ImPy-β-Dp [conjugate 2]
- concentration at which minor cleavage was observed proximal to double base pair mismatch sites [1]: greater than 1 nM
- specificity for reaction at match sites over mismatch sites [1]: approximately 20 fold
- earliest time at which cleavage was detectable ([1]; 0.5 nM, pH 7.0, 37° C.): 10 min
- final cleavage yield on the bottom strand ([1]; 0.5 nM, pH 7.0, 37° C., 24 hours): 45%
- time at which alkylation was half completed at match sites ([1]; 0.5 nM, pH 7.0, 37° C., monitored for 24 hours): 2.2 h
- cleavage on one strand (bottom strand) ([1]; 10 nM concentration, 37° C.): quantitative cleavage
- alkylation at subnanomolar concentrations ([1]; subnanomolar concentrations): high yield
